Reference: ChEMBL document CHEMBL1201862, “PubChem BioAssay data set” (2004)
Activity calls are given as the source filed them.

What was measured:
Cytochrome P450 3A4 [1] = molecular target: T1, Cytochrome P450 3A4 (Homo sapiens, UniProt P08684);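 note: CYP3A4 tested as one member of a cytochrome P450 panel screen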
[2] = system: Streptococcus sp. 'group A'; assay: Streptococcus pyogenes SK(-)GAS viability under kanamycin – luminescence, BacTiterGlo, confirmation, counter-screen for streptokinase expression inhibitor project, dose response (AID 1900); assay type: functional, organism-based
Streptococcus = assay: GAS UMAA2166 growth inhibition – luminescence, BacTiterGlo, counter-screen for streptokinase expression inhibitor project, dose response (AID 1915); assay type: functional, organism-based;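 note: potency for reduction of bacterial viability or growth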
Escherichia coli [3] = assay: microbe, parasite or virus in culture
HEK293 [4] = assay: cells; assay type: functional, cell-based; settings: Homo sapiens
[5] = molecular target: T2, Nuclear receptor subfamily 0 group B member 1 (Homo sapiens, UniProt P51843); assay: Luminescence-based cell-based high throughput dose response assay for inhibitors of the orphan nuclear receptor subfamily 0, group B, member 1 (DAX1; NR0B1). [Related pubchem assays (depositor defined):AID504766, AID504790]; assay type: functional
T2 sequence (P51843 whole entry): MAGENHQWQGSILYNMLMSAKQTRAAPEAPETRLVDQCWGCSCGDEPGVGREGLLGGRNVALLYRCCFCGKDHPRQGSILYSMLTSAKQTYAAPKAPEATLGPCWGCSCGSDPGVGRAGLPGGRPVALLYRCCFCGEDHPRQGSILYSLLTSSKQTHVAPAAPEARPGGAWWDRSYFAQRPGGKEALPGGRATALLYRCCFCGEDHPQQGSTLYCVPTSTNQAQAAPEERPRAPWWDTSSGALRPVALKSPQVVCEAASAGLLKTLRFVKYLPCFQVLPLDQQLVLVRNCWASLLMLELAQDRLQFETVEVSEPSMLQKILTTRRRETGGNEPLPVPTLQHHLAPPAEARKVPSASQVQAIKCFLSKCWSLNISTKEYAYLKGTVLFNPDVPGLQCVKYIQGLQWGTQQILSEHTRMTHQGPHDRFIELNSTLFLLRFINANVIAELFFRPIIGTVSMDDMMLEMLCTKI

H4 = assay: Luminescence Cell-Based Dose Response HTS to Identify Activators of 5'UTR Stem-Loop Driven Prion Protein mRNA Translation in H4 Neuroglioblastoma Cells. [Related pubchem assays: 1829 (Project Summary), 1814 (Primary HTS)]; assay type: functional; settings: Homo sapiens
HeLa = assay: ATP-based viability loss in HeLa cells – cell-based, CellTiter-Glo luminescence, cherry-pick samples, cytotoxicity control for MITF activator project, dose response (AID 540259); assay type: functional; settings: Homo sapiens
[6] = molecular target: Sphingosine 1-phosphate receptor 2 (Homo sapiens, UniProt O95136); assay: Dose Response Cell Based Assay for Agonists of the S1P2 Receptor. [Related pubchem assays: 729, 736, 843 ]; assay type: functional
Cytochrome P450 2C19 = Cytochrome P450 2C19 (Homo sapiens, UniProt P33261); assay: Cytochrome panel assay with activity outcomes. Panel member name: p450-cyp2c19 Compounds with AC50 equal or less than 10 uM are considered active; assay type: functional
Sequence of Cytochrome P450 2C19 (P33261 whole entry): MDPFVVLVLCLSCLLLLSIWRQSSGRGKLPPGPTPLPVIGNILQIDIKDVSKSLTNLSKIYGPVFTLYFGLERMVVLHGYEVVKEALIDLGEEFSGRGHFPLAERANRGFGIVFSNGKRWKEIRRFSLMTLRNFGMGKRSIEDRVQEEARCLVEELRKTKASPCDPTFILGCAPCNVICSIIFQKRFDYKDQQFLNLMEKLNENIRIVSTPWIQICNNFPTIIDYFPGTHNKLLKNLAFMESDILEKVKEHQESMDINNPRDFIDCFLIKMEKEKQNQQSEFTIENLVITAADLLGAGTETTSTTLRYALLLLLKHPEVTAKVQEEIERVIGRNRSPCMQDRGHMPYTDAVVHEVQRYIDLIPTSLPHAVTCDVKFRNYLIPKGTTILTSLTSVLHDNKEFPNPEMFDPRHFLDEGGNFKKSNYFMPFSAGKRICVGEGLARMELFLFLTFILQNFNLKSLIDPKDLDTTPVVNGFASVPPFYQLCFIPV

Cytochrome P450 3A4 [7] = molecular target: T1, Cytochrome P450 3A4; remark: listed apart in the source
Escherichia coli [8] = assay: microbe, parasite or virus in culture; remark: listed apart in the source
CAAX prenyl protease 2 [9] = molecular target: CAAX prenyl protease 2 (Saccharomyces cerevisiae S288c, UniProt Q03530); assay type: biochemical
CAAX prenyl protease 2 [10] = molecular target: CAAX prenyl protease 2 (Homo sapiens, UniProt Q9Y256); assay: inhibition of Ras-converting CAAX protease Rce1 – biochemical, yeast membranes, quenched-peptide fluorescence, cherry-pick, dose response (AID 588849)
[11] = molecular target: Dual specificity tyrosine-phosphorylation-regulated kinase 1A (Rattus norvegicus, UniProt Q63470); assay type: biochemical, Homo sapiens
Protein skinhead-1 = molecular target: T3, Protein skinhead-1 (Caenorhabditis elegans, UniProt P34707); assay type: functional
T3 sequence (P34707 whole entry): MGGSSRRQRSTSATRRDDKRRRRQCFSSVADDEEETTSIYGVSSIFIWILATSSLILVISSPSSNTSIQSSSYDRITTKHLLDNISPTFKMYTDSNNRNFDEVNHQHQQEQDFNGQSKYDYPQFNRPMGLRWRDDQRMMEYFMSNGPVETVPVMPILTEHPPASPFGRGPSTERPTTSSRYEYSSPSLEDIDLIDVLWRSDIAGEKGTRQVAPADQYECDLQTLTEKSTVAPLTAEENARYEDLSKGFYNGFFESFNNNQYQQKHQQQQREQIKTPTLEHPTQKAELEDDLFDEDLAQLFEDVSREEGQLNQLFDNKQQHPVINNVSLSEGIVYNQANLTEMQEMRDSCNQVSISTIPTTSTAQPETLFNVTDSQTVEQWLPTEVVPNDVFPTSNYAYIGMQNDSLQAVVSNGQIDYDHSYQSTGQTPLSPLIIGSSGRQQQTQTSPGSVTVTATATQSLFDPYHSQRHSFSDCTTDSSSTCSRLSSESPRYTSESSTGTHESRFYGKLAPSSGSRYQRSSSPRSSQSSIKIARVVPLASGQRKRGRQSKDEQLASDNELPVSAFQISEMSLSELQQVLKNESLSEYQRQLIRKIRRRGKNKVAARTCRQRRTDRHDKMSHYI

[12] = molecular target: Intestinal-type alkaline phosphatase (Mus musculus, UniProt P24822); assay: PubChem AID 488785; assay type: functional
Sequence of Intestinal-type alkaline phosphatase (Mus musculus, UniProt P24822) (P24822 whole entry): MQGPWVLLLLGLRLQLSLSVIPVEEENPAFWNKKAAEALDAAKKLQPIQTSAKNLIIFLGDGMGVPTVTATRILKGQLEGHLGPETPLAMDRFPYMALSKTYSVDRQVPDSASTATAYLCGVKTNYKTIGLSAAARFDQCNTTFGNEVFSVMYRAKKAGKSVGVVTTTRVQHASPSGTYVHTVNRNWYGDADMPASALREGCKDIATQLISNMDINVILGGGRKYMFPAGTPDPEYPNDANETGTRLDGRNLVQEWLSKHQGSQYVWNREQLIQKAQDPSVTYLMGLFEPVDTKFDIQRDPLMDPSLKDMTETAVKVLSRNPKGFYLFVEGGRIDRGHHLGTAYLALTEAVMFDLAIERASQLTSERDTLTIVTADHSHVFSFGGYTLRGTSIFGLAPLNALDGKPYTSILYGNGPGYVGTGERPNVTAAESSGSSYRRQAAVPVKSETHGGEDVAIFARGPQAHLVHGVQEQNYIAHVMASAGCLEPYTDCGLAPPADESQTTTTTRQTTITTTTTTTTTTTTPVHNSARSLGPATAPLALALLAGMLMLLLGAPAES

[13] = molecular target: T4, Alkaline phosphatase, tissue-nonspecific isozyme (Homo sapiens, UniProt P05186); assay: TNAP enzyme inhibition by screening hits, dose response, selectivity assay for mouse IAP inhibitor project, biochemical, human TNAP, uHTS hits (AID 488906); assay type: functional
T4 sequence (P05186 whole entry): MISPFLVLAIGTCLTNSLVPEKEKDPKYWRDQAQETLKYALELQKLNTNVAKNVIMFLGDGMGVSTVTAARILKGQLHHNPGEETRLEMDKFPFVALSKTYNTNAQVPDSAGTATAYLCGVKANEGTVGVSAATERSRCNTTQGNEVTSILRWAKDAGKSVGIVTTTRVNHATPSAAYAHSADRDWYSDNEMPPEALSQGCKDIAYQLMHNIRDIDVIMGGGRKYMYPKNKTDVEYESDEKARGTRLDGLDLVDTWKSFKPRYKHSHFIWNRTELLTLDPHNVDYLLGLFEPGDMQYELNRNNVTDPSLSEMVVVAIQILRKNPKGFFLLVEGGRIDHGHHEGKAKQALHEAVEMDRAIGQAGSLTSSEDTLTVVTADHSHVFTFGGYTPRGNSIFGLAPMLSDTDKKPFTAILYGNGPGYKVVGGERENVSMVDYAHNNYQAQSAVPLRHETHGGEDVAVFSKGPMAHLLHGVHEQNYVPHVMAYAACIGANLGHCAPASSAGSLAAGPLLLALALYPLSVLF

[14] = molecular target: Intestinal-type alkaline phosphatase (Homo sapiens, UniProt P09923); assay: inhibition of human intestinal alkaline phosphatase – biochemical, dose response (AID 488876); assay type: functional
Sequence of Intestinal-type alkaline phosphatase (Homo sapiens, UniProt P09923) (P09923 whole entry): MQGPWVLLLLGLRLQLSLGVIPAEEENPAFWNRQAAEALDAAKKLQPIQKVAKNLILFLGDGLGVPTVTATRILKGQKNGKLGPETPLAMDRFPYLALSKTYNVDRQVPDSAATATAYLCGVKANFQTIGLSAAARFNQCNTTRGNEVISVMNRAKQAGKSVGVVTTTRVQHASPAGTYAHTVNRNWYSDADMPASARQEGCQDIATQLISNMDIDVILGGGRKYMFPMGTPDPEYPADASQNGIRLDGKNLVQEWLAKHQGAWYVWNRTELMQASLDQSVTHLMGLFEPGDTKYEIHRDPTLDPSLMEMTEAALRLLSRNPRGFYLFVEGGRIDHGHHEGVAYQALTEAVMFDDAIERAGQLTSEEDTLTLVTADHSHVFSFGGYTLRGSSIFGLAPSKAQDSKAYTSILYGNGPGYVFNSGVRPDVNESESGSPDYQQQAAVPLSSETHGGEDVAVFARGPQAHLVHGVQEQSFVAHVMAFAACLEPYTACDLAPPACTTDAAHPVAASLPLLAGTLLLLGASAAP

[15] = molecular target: G-protein coupled receptor 55 (Homo sapiens, UniProt Q9Y2T6); assay: inhibition of LPI-stimulated GPR55 beta-arrestin translocation – imaging, U2OS, beta-arrestin-GFP, LPI agonist, primary screen (AID 2013); assay type: functional;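 note: antagonist potency measured as reduced agonist-driven arrestin aggregation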
[16] = molecular target: Delta-type opioid receptor (Homo sapiens, UniProt P41143); assay: Counterscreen for agonists of heterodimerization of the mu 1 (OPRM1) and delta 1 (OPRD1) opioid receptors: Luminescence-based cell-based high throughput dose response assay to identify agonists of OPRD1 homodimerization. [Related pubchem assays (depositor defined):AID504326, AID504355, AID504692, AID504904, AID504905]; assay type: functional
Sequence of Delta-type opioid receptor (P41143 whole entry): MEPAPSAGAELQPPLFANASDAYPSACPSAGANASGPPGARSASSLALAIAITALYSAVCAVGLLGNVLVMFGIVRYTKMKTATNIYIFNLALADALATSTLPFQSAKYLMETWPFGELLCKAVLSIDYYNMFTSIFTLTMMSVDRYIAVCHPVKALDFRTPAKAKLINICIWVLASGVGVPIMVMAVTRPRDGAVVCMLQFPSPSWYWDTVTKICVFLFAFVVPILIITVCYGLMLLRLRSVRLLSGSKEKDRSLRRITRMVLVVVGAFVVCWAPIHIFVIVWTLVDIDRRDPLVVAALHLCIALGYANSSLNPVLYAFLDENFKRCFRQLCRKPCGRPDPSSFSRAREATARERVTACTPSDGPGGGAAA

Mu-type opioid receptor = Mu-type opioid receptor (Homo sapiens, UniProt P35372); assay: Counterscreen for agonists of heterodimerization of the mu 1 (OPRM1) and delta 1 (OPRD1) opioid receptors: Luminescence-based cell-based high throughput dose response assay to identify agonists of OPRM1 homodimerization.; assay type: functional;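 note: U2OS cells expressing OPRM1 and beta-arrestin as split beta-galactosidase partners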
Sequence of Mu-type opioid receptor (P35372 whole entry): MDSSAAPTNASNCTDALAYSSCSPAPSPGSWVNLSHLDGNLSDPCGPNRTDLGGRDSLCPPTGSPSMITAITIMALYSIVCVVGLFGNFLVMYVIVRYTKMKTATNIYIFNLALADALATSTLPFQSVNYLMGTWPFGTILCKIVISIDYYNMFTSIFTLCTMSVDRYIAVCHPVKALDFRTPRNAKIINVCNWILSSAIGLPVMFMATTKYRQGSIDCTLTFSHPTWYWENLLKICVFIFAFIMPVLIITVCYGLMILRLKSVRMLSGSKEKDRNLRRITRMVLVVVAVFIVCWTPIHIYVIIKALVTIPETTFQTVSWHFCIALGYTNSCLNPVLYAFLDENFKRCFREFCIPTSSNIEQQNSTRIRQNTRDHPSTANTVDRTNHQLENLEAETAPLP

[17] = molecular target: 5-hydroxytryptamine receptor 5A (Homo sapiens, UniProt P47898); assay: Counterscreen for agonists of OPRM1-OPRD1 heterodimerization: luminescence-based cell-based high throughput dose response assay to identify agonists of 5-hydroxytryptamine (serotonin) 5A receptor (HTR5A). [Related pubchem assays (depositor defined):AID504326, AID504355, AID504692, AID504904, AID504905]; assay type: functional
Sequence of 5-hydroxytryptamine receptor 5A (P47898 whole entry): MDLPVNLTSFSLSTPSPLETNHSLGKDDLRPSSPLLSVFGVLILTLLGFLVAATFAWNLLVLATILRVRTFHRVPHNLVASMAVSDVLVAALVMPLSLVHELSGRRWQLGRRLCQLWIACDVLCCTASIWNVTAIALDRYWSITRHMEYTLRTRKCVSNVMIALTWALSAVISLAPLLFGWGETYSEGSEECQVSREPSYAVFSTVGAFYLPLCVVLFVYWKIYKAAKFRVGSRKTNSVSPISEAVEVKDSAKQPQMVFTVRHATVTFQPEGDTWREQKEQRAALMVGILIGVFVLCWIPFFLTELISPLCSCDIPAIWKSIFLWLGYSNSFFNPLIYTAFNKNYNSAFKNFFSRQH

Vero = assay: cells; assay type: functional; settings: Chlorocebus sabaeus
[18] = molecular target: Induced myeloid leukemia cell differentiation protein Mcl-1 (Homo sapiens, UniProt Q07820); assay type: functional
Cysteine protease ATG4B = Cysteine protease ATG4B (Homo sapiens, UniProt Q9Y4P1); assay type: functional;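 note: Fluorescence-based dose-response confirmation assay measuring inhibition of ATG4B activity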
Sequence of Cysteine protease ATG4B (Q9Y4P1 whole entry): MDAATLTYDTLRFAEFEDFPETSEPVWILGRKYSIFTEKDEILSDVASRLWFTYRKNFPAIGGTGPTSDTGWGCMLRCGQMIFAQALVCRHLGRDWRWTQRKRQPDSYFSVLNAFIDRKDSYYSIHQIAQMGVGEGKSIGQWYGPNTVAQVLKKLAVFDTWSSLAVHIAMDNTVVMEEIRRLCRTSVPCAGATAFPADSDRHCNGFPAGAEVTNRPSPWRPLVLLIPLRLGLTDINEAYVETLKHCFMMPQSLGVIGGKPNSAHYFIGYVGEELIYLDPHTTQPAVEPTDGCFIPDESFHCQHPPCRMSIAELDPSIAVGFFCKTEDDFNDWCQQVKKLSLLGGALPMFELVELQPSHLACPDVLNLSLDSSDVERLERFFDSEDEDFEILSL

Phospholipase A2 = Phospholipase A2 (Homo sapiens, UniProt P04054); assay type: functional;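 note: confirmatory dose-response counterscreen on phospholipase A2, testing hits that came from an ultra-high-throughput screen for ATG4B inhibitors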
Sequence of Phospholipase A2 (P04054 whole entry): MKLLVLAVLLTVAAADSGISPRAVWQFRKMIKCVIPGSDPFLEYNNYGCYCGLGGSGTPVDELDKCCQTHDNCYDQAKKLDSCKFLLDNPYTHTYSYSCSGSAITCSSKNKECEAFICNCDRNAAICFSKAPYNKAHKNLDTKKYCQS

HEK293 [19] = assay: cells; settings: Homo sapiens
HEK293 [20] = assay: cells; settings: Homo sapiens; remark: listed apart in the source
[21] = Trypanosoma cruzi growth suppression in host cells – NIH3T3 host cells, beta-gal luminescence, confirmation (AID 2044); assay type: functional, cell-based;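 note: intracellular parasites grown in NIH/3T3 mouse fibroblasts as host cells; luminescent beta-galactosidase reporter signal from transgenic T. cruzi replicating inside host cells; inhibitors lower the luminescence signal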
[22] = NIH3T3 cell viability loss – ATP luminescence, mouse fibroblasts, counter-screen, dose response (AID 2010); assay type: functional, cell-based;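 note: cells exposed to compound for about 90 hours before reading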
[23] = molecular target: Lysine-specific demethylase 4A (Homo sapiens, UniProt O75164); assay: inhibition of JMJD2A H3K9me3 demethylation – biochemical, DELFIA europium, cherry-picked samples, selectivity assay for GASC-1 inhibitor project, dose response (AID 488840)
Sequence of Lysine-specific demethylase 4A (O75164 whole entry): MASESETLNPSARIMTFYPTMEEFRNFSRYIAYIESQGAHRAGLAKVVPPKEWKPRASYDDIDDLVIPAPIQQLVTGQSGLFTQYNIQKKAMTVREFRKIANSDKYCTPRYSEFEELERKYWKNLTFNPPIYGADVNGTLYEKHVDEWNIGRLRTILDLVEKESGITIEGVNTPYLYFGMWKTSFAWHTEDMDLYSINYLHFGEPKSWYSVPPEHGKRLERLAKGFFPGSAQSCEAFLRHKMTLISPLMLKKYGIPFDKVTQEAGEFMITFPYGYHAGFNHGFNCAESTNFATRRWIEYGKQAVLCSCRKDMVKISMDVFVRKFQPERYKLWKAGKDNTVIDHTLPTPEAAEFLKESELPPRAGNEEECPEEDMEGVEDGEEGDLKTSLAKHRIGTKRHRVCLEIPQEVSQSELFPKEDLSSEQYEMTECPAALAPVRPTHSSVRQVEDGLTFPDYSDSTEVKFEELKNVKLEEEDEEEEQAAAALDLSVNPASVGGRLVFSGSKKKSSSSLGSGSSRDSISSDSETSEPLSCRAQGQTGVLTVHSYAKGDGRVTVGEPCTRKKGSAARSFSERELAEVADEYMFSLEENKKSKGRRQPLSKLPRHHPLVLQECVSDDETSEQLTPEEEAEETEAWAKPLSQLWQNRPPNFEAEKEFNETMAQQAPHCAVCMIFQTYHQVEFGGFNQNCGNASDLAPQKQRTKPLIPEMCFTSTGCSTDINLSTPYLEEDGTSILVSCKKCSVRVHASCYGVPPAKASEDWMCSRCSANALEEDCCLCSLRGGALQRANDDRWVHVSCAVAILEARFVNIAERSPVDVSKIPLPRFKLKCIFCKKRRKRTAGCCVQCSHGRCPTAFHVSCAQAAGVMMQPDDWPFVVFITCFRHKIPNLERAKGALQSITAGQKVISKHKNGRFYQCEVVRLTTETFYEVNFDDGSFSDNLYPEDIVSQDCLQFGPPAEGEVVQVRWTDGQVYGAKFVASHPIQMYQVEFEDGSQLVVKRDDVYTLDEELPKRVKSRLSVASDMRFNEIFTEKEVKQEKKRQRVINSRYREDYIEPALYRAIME

Genome polyprotein = Genome polyprotein (dengue virus type 2, UniProt P29990); assay: flavivirus cap methylation enzyme inhibition – biochemical, confirmation dose response, primary screen (AID 588689); assay type: functional

T1 sequence (P08684 whole entry): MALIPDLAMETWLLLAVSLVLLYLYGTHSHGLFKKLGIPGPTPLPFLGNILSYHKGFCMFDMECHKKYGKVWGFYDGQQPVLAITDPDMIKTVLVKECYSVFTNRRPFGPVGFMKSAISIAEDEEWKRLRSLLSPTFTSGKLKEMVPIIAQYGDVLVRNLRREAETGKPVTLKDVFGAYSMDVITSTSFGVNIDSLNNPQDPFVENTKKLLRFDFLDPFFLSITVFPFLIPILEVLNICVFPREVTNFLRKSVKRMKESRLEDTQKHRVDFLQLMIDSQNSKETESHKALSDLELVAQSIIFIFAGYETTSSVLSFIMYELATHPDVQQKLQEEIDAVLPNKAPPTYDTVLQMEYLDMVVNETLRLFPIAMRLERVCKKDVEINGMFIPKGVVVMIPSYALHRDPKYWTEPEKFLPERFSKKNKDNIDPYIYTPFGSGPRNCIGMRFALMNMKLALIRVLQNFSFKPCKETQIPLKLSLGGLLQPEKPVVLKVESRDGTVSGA

Cc1ccccc1C(=O)N1CCN(c2ccc([N+](=O)[O-])c(N3CCOCC3)c2)CC1
AC50 (Cytochrome P450 3A4 [1]): inconclusive

COc1c(N2CCN(C(S)=Nc3ccccc3F)C(C)C2)c(F)cc2c(=O)c(C(=O)O)cn(C3CC3)c12 (stereo not given)
EC50 [2]: 2.24 µM (active) | EC50 (Streptococcus): 3.27 µM (active) | AC50 (Escherichia coli [3]): 0.518 µM (active)

COc1cc(SC)ccc1C(=O)Nc1ccc2c(c1)OCO2
IC50 (HEK293 [4]): > 67.6 µM (inactive) | IC50 [5]: > 67.6 µM (inactive)

O=C1CCCc2nc3c(cc21)C(O)Oc1c-3ccc2ccccc12 (stereo not given)
EC50 (H4): > 120 µM (not active) | AC50 (HeLa): 51 µM (active)

O=c1c(-c2nc3ccccc3s2)cccn1Cc1ccccc1
EC50 [6]: 7.37 µM (active) | AC50 (HeLa): 56.9 µM (active)

CCn1c(C)cc(C(=O)COC(=O)c2cccnc2SC)c1C
IC50 (HEK293 [4]): > 67.5 µM (inactive) | IC50 [5]: > 67.5 µM (inactive)

Fc1cccc(NC(S)=NCCCN2CCOCC2)c1
AC50 (Cytochrome P450 2C19; read-out: AC50): 17.8 µM (inconclusive) | AC50 (Cytochrome P450 3A4 [7]): 17.8 µM (inconclusive) | AC50 (Escherichia coli [8]): 17.3 µM (active)

COc1ccc2cc(C(=O)C3CCCN(C(=O)c4cc(=O)n(C)c(=O)n4C)C3)ccc2c1 (stereo not given)
AC50 (CAAX prenyl protease 2 [9]): 10.4 µM (active) | AC50 (CAAX prenyl protease 2 [10]): 14.2 µM (active)

CC(=O)Nc1nc2ccc(Br)cc2s1
AC50 [11]: 3.33 µM (active) | IC50 (Protein skinhead-1): > 100 µM (inactive)

C[N+](C)(C)C(Cc1ccccc1)C(=O)[O-] (stereo not given)
IC50 [12]: 4.35 µM (active) | IC50 [13]: 60.4 µM (active) | IC50 [14]: > 100 µM (inactive)

Cc1cc(/C=C2\SC(Nc3ccccc3)=NC2=O)c(C)n1-c1ccc(S(N)(=O)=O)cc1
IC50 [15]: 1.66 µM (active) | EC50 [16]: 3.03 µM (active) | EC50 (Mu-type opioid receptor): > 92.5 µM (inactive) | EC50 [17]: > 92.5 µM (inactive) | CC50 (Vero): 7.44 µM (active)

Cc1ccc(/N=C2N=C(O)/C(=C/C=C/c3ccco3)S\2)cc1C
IC50 [18]: 13.4 µM (active) | IC50 (Cysteine protease ATG4B): 6.65 µM (active) | IC50 (Phospholipase A2): 5.94 µM (active)

CC(C)(C)OC(=O)CC(S(=O)(=O)c1ccccc1)S(=O)(=O)c1ccccc1
EC50 (HEK293 [19]): > 59.6 µM (inactive) | EC50 (HEK293 [20]): > 59.6 µM (inactive)

Cc1cc(OC(=O)c2cccs2)ccc1C(C)C
IC50 (Cysteine protease ATG4B): 5.44 µM (active) | IC50 (Phospholipase A2): 3.74 µM (active)

CCCn1ncc(CN2CCC(C(=O)Nc3cccc(-c4cccc(F)c4)c3)CC2)c1C
EC50 [21]: 2.33 µM (active) | EC50 [22]: 3.89 µM (active) | IC50 [12]: 0.902 µM (active) | IC50 [13]: 11.8 µM (active) | IC50 [14]: > 100 µM (inactive)

CCn1nnc(NC(=O)c2cc3ccccc3o2)n1
AC50 [23]: 48.3 µM (active)

Cc1ccc(C(=O)C2CCNCC2)cc1.Cl
AC50 (Cytochrome P450 2C19): inconclusive | AC50 (Cytochrome P450 3A4 [1]): inconclusive

NS(=O)(=O)c1ccc(N=Nc2c(O)c(C(=O)O)cc3ccccc23)cc1
IC50 (Genome polyprotein): > 100 µM (active) | AC50 [11]: 3.59 µM (active)

CCOC(=O)[C@H]1[C@H]2COc3ccc(OC)cc3[C@H]2N2C(=O)CN(Cc3ccccc3)C(=O)[C@@]12C
AC50 (Escherichia coli [8]): 54.9 µM (active)

CCC(=O)OC(Cc1ccccc1)(c1ccccc1)[C@H](C)CN(C)C (stereo not given in full)
EC50 [16]: 86.4 µM (inactive) | EC50 (Mu-type opioid receptor): > 92.5 µM (inactive) | EC50 [17]: > 92.5 µM (inactive)

Cc1cccc(N(CC(=O)NC2CCCC2)C(=O)CCCC(=O)Nc2ccccn2)c1
AC50 (Escherichia coli [3]): 25 µM (active)

O=C(O)c1cc(O)c2c(c1)[C@@H]([C@H]1c3cc(C(=O)O)cc(O)c3C(=O)c3c(O[C@@H]4O[C@H](CO)[C@@H](O)[C@H](O)[C@H]4O)cccc31)c1cccc(O[C@@H]3O[C@H](CO)[C@@H](O)[C@H](O)[C@H]3O)c1C2=O [SENNOSIDE B]
AC50 [23]: 3.69 µM (active)
